# Assay results from PubChem BioAssay AID248 (DTP/NCI, 2004).
# Values joined by “and” are separate entries in the source; they are usually repeats but may differ in a detail not shown here. Identical values can stand only once. Inconclusive results and toxic doses are left out.
# Tested on: L1210 leukemia ip in BDF1 mice, survival T/C
# Assay: NCI In Vivo Anticancer Drug Screen. Data for tumor model L1210 Leukemia (intraperitoneal) in B6D2F1 (BDF1) mice
# Conditions: endpoint: mean survival time, higher = longer survival
# In short: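 Each compound was tested against a transplantable tumor grown in mice. The endpoint was survival, with treated animals benchmarked against vehicle controls as a simple ratio.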
# [1] = dose: 100.0 mg/kg/injection, schedule: Q01DX009 (ip), vehicle: saline with Tween-80
# [2] = dose: 200.0 mg/kg/injection, schedule: Q01DX009 (ip), vehicle: saline with Tween-80
# [3] = dose: 100.0 mg/kg/injection, schedule: Q01DX009 (ip), vehicle: Klucel (hydroxypropylcellulose) (HPC)
# [4] = dose: 200.0 mg/kg/injection, schedule: Q01DX009 (ip), vehicle: Klucel (hydroxypropylcellulose) (HPC)
# [5] = dose: 400.0 mg/kg/injection, schedule: Q01DX009 (ip), vehicle: Klucel (hydroxypropylcellulose) (HPC)
# [6] = dose: 100.0 mg/kg/injection, schedule: Q04DX003 (ip), vehicle: saline with Tween-80
# [7] = dose: 200.0 mg/kg/injection, schedule: Q04DX003 (ip), vehicle: saline with Tween-80
# [8] = dose: 400.0 mg/kg/injection, schedule: Q04DX003 (ip), vehicle: saline with Tween-80
# [9] = dose: 400.0 mg/kg/injection, schedule: Q01DX009 (ip), vehicle: saline with Tween-80
structure (smiles),measurement,setting,value
CC1CN1c1cc(O)c(N2CC2C)cc1O (stereo unspecified),T/C,"dose: 0.25 mg/kg/injection, schedule: Q01DX009 (ip), vehicle: saline",100 % of control
same,T/C,"dose: 0.5 mg/kg/injection, schedule: Q01DX009 (ip), vehicle: saline",92 % of control
same,T/C,"dose: 0.5 mg/kg/injection, schedule: Q01DX Z (ip), vehicle: methylcellulose (MC)",110 % of control
same,T/C,"dose: 0.8 mg/kg/injection, schedule: Q01DX Z (ip), vehicle: methylcellulose (MC)",111 % of control
same,T/C,"dose: 1.0 mg/kg/injection, schedule: Q01DX009 (ip), vehicle: saline",118 % of control
same,T/C,"dose: 1.2 mg/kg/injection, schedule: Q01DX Z (ip), vehicle: carboxymethylcellulose (CMC)",115 % of control
same,T/C,"dose: 1.2 mg/kg/injection, schedule: Q01DX Z (ip), vehicle: methylcellulose (MC)",109 % of control and 123 % of control
same,T/C,"dose: 1.8 mg/kg/injection, schedule: Q01DX Z (ip), vehicle: carboxymethylcellulose (CMC)",121 % of control
same,T/C,"dose: 2.0 mg/kg/injection, schedule: Q01DX009 (ip), vehicle: saline",118 % of control
same,T/C,"dose: 2.7 mg/kg/injection, schedule: Q01DX Z (ip), vehicle: methylcellulose (MC)",171 % of control
same,T/C,"dose: 4.0 mg/kg/injection, schedule: Q01DX Z (ip), vehicle: carboxymethylcellulose (CMC)",120 % of control
same,T/C,"dose: 4.0 mg/kg/injection, schedule: Q01DX Z (ip), vehicle: methylcellulose (MC)",109 % of control and 155 % of control and 212 % of control
same,T/C,"dose: 5.0 mg/kg/injection, schedule: Q01DX009 (ip), vehicle: saline",150 % of control
same,T/C,"dose: 6.0 mg/kg/injection, schedule: Q01DX Z (ip), vehicle: carboxymethylcellulose (CMC)",108 % of control
same,T/C,"dose: 6.0 mg/kg/injection, schedule: Q01DX Z (ip), vehicle: methylcellulose (MC)",172 % of control and 180 % of control
same,T/C,"dose: 9.0 mg/kg/injection, schedule: Q01DX Z (ip), vehicle: methylcellulose (MC)",155 % of control and 174 % of control
same,T/C,"dose: 10.0 mg/kg/injection, schedule: Q01DX009 (ip), vehicle: saline",121 % of control
same,T/C,"dose: 13.5 mg/kg/injection, schedule: Q01DX Z (ip), vehicle: methylcellulose (MC)",114 % of control
same,T/C,"dose: 20.0 mg/kg/injection, schedule: Q01DX009 (ip), vehicle: saline",101 % of control
same,T/C,"dose: 20.0 mg/kg/injection, schedule: Q01DX Z (ip), vehicle: methylcellulose (MC)",90 % of control
CC1N=C(N)NC(=O)C1c1ccc(Cl)cc1 (stereo unspecified),T/C,[1],103 % of control
same,T/C,[2],100 % of control
CC(C)=CCC/C(C)=C/C(=O)O,T/C,"dose: 100.0 mg/kg/injection, schedule: Q01DX001 (ip), vehicle: saline",100 % of control
same,T/C,"dose: 200.0 mg/kg/injection, schedule: Q01DX001 (ip), vehicle: saline",93 % of control
same,T/C,"dose: 400.0 mg/kg/injection, schedule: Q01DX001 (ip), vehicle: saline",93 % of control
C(/C=N/Nc1cnccn1)=N\Nc1cnccn1,T/C,[3],89 % of control
same,T/C,[4],89 % of control
same,T/C,[5],110 % of control
O=C(Nc1ccc(N=Nc2ccccc2)cc1)C1CC1,T/C,[3],101 % of control
same,T/C,[4],100 % of control
same,T/C,[5],94 % of control
COc1ccc(C(c2ccc(OC)cc2)c2cccc([N+](=O)[O-])c2)cc1,T/C,[6],97 % of control
same,T/C,[7],92 % of control
O=C(Nc1ccccc1C1=NCCN1)c1ccc(C(=O)Nc2ccccc2C2=NCCN2)cc1,T/C,"dose: 15.0 mg/kg/injection, schedule: Q01DX Z (ip), vehicle: methylcellulose (MC)",88 % of control
same,T/C,"dose: 30.0 mg/kg/injection, schedule: Q01DX Z (ip), vehicle: methylcellulose (MC)",95 % of control
same,T/C,"dose: 62.0 mg/kg/injection, schedule: Q01DX Z (ip), vehicle: carboxymethylcellulose (CMC)",92 % of control
same,T/C,"dose: 125.0 mg/kg/injection, schedule: Q01DX Z (ip), vehicle: carboxymethylcellulose (CMC)",94 % of control
same,T/C,"dose: 250.0 mg/kg/injection, schedule: Q01DX Z (ip), vehicle: carboxymethylcellulose (CMC)",88 % of control
CN(C)Cc1ccccc1COC(=O)c1ccc(Br)cc1,T/C,"dose: 50.0 mg/kg/injection, schedule: Q04DX002 (ip), vehicle: Klucel (hydroxypropylcellulose) (HPC)",98 % of control
same,T/C,"dose: 100.0 mg/kg/injection, schedule: Q04DX002 (ip), vehicle: Klucel (hydroxypropylcellulose) (HPC)",105 % of control
same,T/C,"dose: 200.0 mg/kg/injection, schedule: Q04DX002 (ip), vehicle: Klucel (hydroxypropylcellulose) (HPC)",94 % of control
C=C(C)COB(OCC(=C)C)OCC(=C)C,T/C,"dose: 25.0 mg/kg/injection, schedule: Q01DX009 (ip), vehicle: saline with Tween-80",100 % of control
same,T/C,"dose: 50.0 mg/kg/injection, schedule: Q01DX009 (ip), vehicle: saline with Tween-80",105 % of control
same,T/C,[1],94 % of control
NC(N)=Nc1nc2ccc([N+](=O)[O-])cc2[nH]1,T/C,"dose: 100.0 mg/kg/injection, schedule: Q01DX009 (ip), vehicle: saline",93 % of control
same,T/C,"dose: 100.0 mg/kg/injection, schedule: Q04DX003 (ip), vehicle: saline",90 % of control
same,T/C,"dose: 200.0 mg/kg/injection, schedule: Q01DX009 (ip), vehicle: saline",91 % of control
same,T/C,"dose: 200.0 mg/kg/injection, schedule: Q04DX003 (ip), vehicle: saline",94 % of control
same,T/C,"dose: 400.0 mg/kg/injection, schedule: Q01DX009 (ip), vehicle: saline",96 % of control
same,T/C,"dose: 400.0 mg/kg/injection, schedule: Q04DX003 (ip), vehicle: saline",94 % of control
COc1ccc(COC(=O)Oc2ccc(C)cc2)cc1,T/C,"dose: 100.0 mg/kg/injection, schedule: Q04DX002 (ip), vehicle: saline",113 % of control
same,T/C,"dose: 200.0 mg/kg/injection, schedule: Q04DX002 (ip), vehicle: saline",109 % of control
same,T/C,"dose: 400.0 mg/kg/injection, schedule: Q04DX002 (ip), vehicle: saline",98 % of control
CCCCN(C)/N=N/c1[nH]ncc1C(=O)OC,T/C,"dose: 268.0 mg/kg/injection, schedule: Q01DX007 (ip), vehicle: other",150 % of control
same,T/C,"dose: 600.0 mg/kg/injection, schedule: Q01DX007 (ip), vehicle: other",88 % of control
O=C(O)C(Br)C(Br)c1ccc([N+](=O)[O-])cc1 (stereo unspecified),T/C,"dose: 100.0 mg/kg/injection, schedule: Q04DX002 (ip), vehicle: gum acacia",103 % of control
same,T/C,"dose: 200.0 mg/kg/injection, schedule: Q04DX002 (ip), vehicle: gum acacia",107 % of control
same,T/C,"dose: 400.0 mg/kg/injection, schedule: Q04DX002 (ip), vehicle: gum acacia",90 % of control
O=c1[nH]c(=O)n(CCCOc2ccccc2)cc1CCc1ccccc1,T/C,"dose: 100.0 mg/kg/injection, schedule: Q01DX001 (ip), vehicle: Klucel (hydroxypropylcellulose) (HPC)",91 % of control
same,T/C,"dose: 200.0 mg/kg/injection, schedule: Q01DX001 (ip), vehicle: Klucel (hydroxypropylcellulose) (HPC)",94 % of control
same,T/C,"dose: 400.0 mg/kg/injection, schedule: Q01DX001 (ip), vehicle: Klucel (hydroxypropylcellulose) (HPC)",87 % of control
CCCCCCCCCCCCCC(=O)[O][Sn]([CH2]CCC)([CH2]CCC)[O]C(=O)CCCCCCCCCCCCC,T/C,"dose: 0.78 mg/kg/injection, schedule: Q04DX003 (ip), vehicle: other",95 % of control
same,T/C,"dose: 1.56 mg/kg/injection, schedule: Q04DX003 (ip), vehicle: other",98 % of control
same,T/C,"dose: 3.13 mg/kg/injection, schedule: Q04DX003 (ip), vehicle: other",96 % of control
same,T/C,"dose: 6.25 mg/kg/injection, schedule: Q04DX003 (ip), vehicle: other",109 % of control
same,T/C,"dose: 12.5 mg/kg/injection, schedule: Q04DX003 (ip), vehicle: other",101 % of control
c1ccc(Oc2ccccc2)cc1,T/C,[6],105 % of control
same,T/C,[7],101 % of control
same,T/C,[8],97 % of control
Clc1ccc(Oc2ccc(N3C=Nc4ccc(Oc5ccc(Cl)cc5)cc4C3)cc2)cc1,T/C,[1],98 % of control
same,T/C,[6],97 % of control
same,T/C,[2],96 % of control
same,T/C,[7],94 % of control
same,T/C,[9],93 % of control
same,T/C,[8],89 % of control
N#CC(Oc1ccccc1)c1ccccc1 (stereo unspecified),T/C,[6],98 % of control
same,T/C,[8],104 % of control
CCC1(c2ccccc2)NC(=O)NC1=O (stereo unspecified),T/C,[1],102 % of control
same,T/C,[2],100 % of control
O=S(=O)(CCCl)CCc1ccccc1,T/C,"dose: 100.0 mg/kg/injection, schedule: Q04DX002 (ip), vehicle: saline with Tween-80",96 % of control
same,T/C,"dose: 200.0 mg/kg/injection, schedule: Q04DX002 (ip), vehicle: saline with Tween-80",89 % of control
same,T/C,"dose: 400.0 mg/kg/injection, schedule: Q04DX002 (ip), vehicle: saline with Tween-80",93 % of control
O=C(Cc1ccc(F)cc1)c1ccccc1,T/C,[6],98 % of control
same,T/C,[7],98 % of control
same,T/C,[8],96 % of control
OC(OCCCCCCOC(O)C(Cl)(Cl)Cl)C(Cl)(Cl)Cl (stereo unspecified),T/C,[1],93 % of control
same,T/C,[6],98 % of control
same,T/C,[2],98 % of control
same,T/C,[7],104 % of control
same,T/C,[9],106 % of control
same,T/C,[8],98 % of control
